Test results as given in PubChem BioAssay AID248 (DTP/NCI, 2004).
Values joined by “and” are separate entries in the source; they are usually repeats but may differ in a detail not shown here. Identical values can stand only once. Inconclusive results and toxic doses are left out. Cut-off read from the data, not from the text of the source: active = T/C of 150% or more; inactive = T/C below 125%.

Tested on: L1210 leukemia ip in BDF1 mice, survival T/C
Assay: NCI In Vivo Anticancer Drug Screen. Data for tumor model L1210 Leukemia (intraperitoneal) in B6D2F1 (BDF1) mice
Conditions: endpoint: mean survival time, higher = longer survival
Procedure, shortened: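 Survival endpoint. Drug-treated group vs vehicle group, expressed as T divided by C. Tumor passaged by transplantation.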

[1] = dose: 400.0 mg/kg/injection, schedule: Q04DX002 (ip), vehicle: saline with Tween-80

Measured: T/C

C1COCCN1
inactive: dose: 25.6 mg/kg/injection, schedule: Q04DX002 (ip), vehicle: saline with Tween-80 101 % of control | dose: 64.0 mg/kg/injection, schedule: Q04DX002 (ip), vehicle: saline with Tween-80 101 % of control | dose: 100.0 mg/kg/injection, schedule: Q04DX003 (ip), vehicle: saline with Tween-80 98 % of control | dose: 160.0 mg/kg/injection, schedule: Q04DX002 (ip), vehicle: saline with Tween-80 101 % of control | dose: 200.0 mg/kg/injection, schedule: Q04DX003 (ip), vehicle: saline with Tween-80 101 % of control | [1] 101 % of control | dose: 400.0 mg/kg/injection, schedule: Q04DX003 (ip), vehicle: saline with Tween-80 95 % of control

CN=C(c1ccc(NC(=O)c2ccc(C(=O)Nc3ccc(C(=NC)N(C)C)cc3)cc2)cc1)N(C)C
inactive: dose: 0.94 mg/kg/injection, schedule: Q01DX Z (ip), vehicle: saline 94 % of control | dose: 1.88 mg/kg/injection, schedule: Q01DX Z (ip), vehicle: saline 101 % of control | dose: 3.75 mg/kg/injection, schedule: Q01DX Z (ip), vehicle: saline 97 % of control | dose: 7.5 mg/kg/injection, schedule: Q01DX Z (ip), vehicle: saline 111 % of control

CC(=O)OCC1OCOC2C1OC1OCOC12 (stereo unspecified)
inactive: dose: 100.0 mg/kg/injection, schedule: Q04DX002 (ip), vehicle: saline with Tween-80 104 % of control | dose: 200.0 mg/kg/injection, schedule: Q04DX002 (ip), vehicle: saline with Tween-80 104 % of control | [1] 118 % of control

O=S(=O)(Nc1cccc(C(F)(F)F)c1)c1cc(Cl)c(Cl)cc1Cl
inactive: dose: 50.0 mg/kg/injection, schedule: Q01DX009 (ip), vehicle: carboxymethylcellulose (CMC) 86 % of control | dose: 75.0 mg/kg/injection, schedule: Q04DX003 (ip), vehicle: carboxymethylcellulose (CMC) 94 % of control | dose: 100.0 mg/kg/injection, schedule: Q04DX002 (ip), vehicle: carboxymethylcellulose (CMC) 100 % of control and 102 % of control | dose: 150.0 mg/kg/injection, schedule: Q04DX003 (ip), vehicle: carboxymethylcellulose (CMC) 94 % of control | dose: 200.0 mg/kg/injection, schedule: Q04DX002 (ip), vehicle: carboxymethylcellulose (CMC) 97 % of control | dose: 300.0 mg/kg/injection, schedule: Q04DX003 (ip), vehicle: carboxymethylcellulose (CMC) 100 % of control | dose: 400.0 mg/kg/injection, schedule: Q04DX002 (ip), vehicle: carboxymethylcellulose (CMC) 101 % of control and 91 % of control
